Consider 19 compounds from PubChem BioAssay AID330 (DTP/NCI, 2004).

SMILES strings stand for the structures. Values joined by “and” are separate entries in the source; they are usually repeats but may differ in a detail not shown here. Equal entries are not always repeated. Toxic doses and inconclusive results are not listed.

The subject of the test is P388 leukemia ip, CD2F1 mice, survival T/C. The test can be described thus: NCI In Vivo Anticancer Drug Screen. Data for tumor model P388 Leukemia (intraperitoneal) in CD2F1 (CDF1) mice. The following applies: endpoint: median survival time, higher = longer survival. Summed up: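 Mice carrying the transplanted tumor received test compound or vehicle. Survival was recorded in each group, and the value is the treated-group measurement divided by that of the vehicle-treated control group.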

Setting [1] is: dose: 25.0 mg/kg/injection, schedule: Q01DX009 (ip), vehicle: saline with Tween-80.
[2] abbreviates: dose: 50.0 mg/kg/injection, schedule: Q01DX009 (ip), vehicle: saline with Tween-80.
Setting [3] is: dose: 50.0 mg/kg/injection, schedule: Q01DX009 (ip), vehicle: saline.
Where [4] appears, read: dose: 100.0 mg/kg/injection, schedule: Q01DX009 (ip), vehicle: saline.
Where [5] appears, read: dose: 50.0 mg/kg/injection, schedule: Q01DX009 (ip), vehicle: Klucel (hydroxypropylcellulose) (HPC).
[6] abbreviates: dose: 100.0 mg/kg/injection, schedule: Q01DX009 (ip), vehicle: Klucel (hydroxypropylcellulose) (HPC).
[7] abbreviates: dose: 200.0 mg/kg/injection, schedule: Q01DX009 (ip), vehicle: Klucel (hydroxypropylcellulose) (HPC).
Where [8] appears, read: dose: 50.0 mg/kg/injection, schedule: Q04DX003 (ip), vehicle: saline with Tween-80.
Setting [9] is: dose: 100.0 mg/kg/injection, schedule: Q04DX003 (ip), vehicle: saline with Tween-80.
Setting [10] is: dose: 25.0 mg/kg/injection, schedule: Q01DX005 (ip), vehicle: Klucel (hydroxypropylcellulose) (HPC).
The mark [11] stands for this setting: dose: 50.0 mg/kg/injection, schedule: Q01DX005 (ip), vehicle: Klucel (hydroxypropylcellulose) (HPC).
Where [12] appears, read: dose: 100.0 mg/kg/injection, schedule: Q01DX005 (ip), vehicle: Klucel (hydroxypropylcellulose) (HPC).
Where [13] appears, read: dose: 100.0 mg/kg/injection, schedule: Q01DX001 (ip), vehicle: saline with Tween-80.
[14] abbreviates: dose: 200.0 mg/kg/injection, schedule: Q01DX001 (ip), vehicle: saline with Tween-80.
Setting [15] is: dose: 400.0 mg/kg/injection, schedule: Q01DX001 (ip), vehicle: saline with Tween-80.
Where [16] appears, read: dose: 60.0 mg/kg/injection, schedule: Q01DX005 (ip), vehicle: saline with Tween-80.
The mark [17] stands for this setting: dose: 120.0 mg/kg/injection, schedule: Q01DX005 (ip), vehicle: saline with Tween-80.
Where [18] appears, read: dose: 240.0 mg/kg/injection, schedule: Q01DX005 (ip), vehicle: saline with Tween-80.

In the case of `CN(C)C1CC(N2c3ccccc3Sc3ccc(Cl)cc32)C1` (stereo not given), the T/C runs as follows: (dose: 50.0 mg/kg/injection, schedule: Q04DX003 (ip), vehicle: Klucel (hydroxypropylcellulose) (HPC)) 107 % of control; (dose: 100.0 mg/kg/injection, schedule: Q04DX003 (ip), vehicle: Klucel (hydroxypropylcellulose) (HPC)) 104 % of control; (dose: 200.0 mg/kg/injection, schedule: Q04DX003 (ip), vehicle: Klucel (hydroxypropylcellulose) (HPC)) 107 % of control.

Turning to `CCCCCCCCCCCCCC1=NCCN1CCN`, the T/C (dose: 6.25 mg/kg/injection, schedule: Q01DX009 (ip), vehicle: saline with Tween-80) was 108 % of control and 94 % of control; the T/C (dose: 12.5 mg/kg/injection, schedule: Q01DX009 (ip), vehicle: saline with Tween-80) is 105 % of control and 108 % of control and 109 % of control; the T/C under setting [1] is 107 % of control and 108 % of control and 111 % of control; the T/C under setting [2] is 99 % of control and 108 % of control; the T/C under setting [3] is 96 % of control; the T/C under setting [4] was 87 % of control.

Take `S=C(N/N=C/c1ccccn1)SCc1ccccc1`: the T/C runs as follows: under setting [5], 101 % of control; under setting [6], 104 % of control; under setting [7], 100 % of control.

On to `CCCN=C(N)c1ccc(NC(=O)c2ccc(C(=O)Nc3ccc(C(N)=NCCC)cc3)cc2)cc1`, for which the T/C by setting is: (dose: 6.25 mg/kg/injection, schedule: Q04DX003 (ip), vehicle: saline with Tween-80) 154 % of control; (dose: 12.5 mg/kg/injection, schedule: Q04DX003 (ip), vehicle: saline with Tween-80) 163 % of control; under setting [1], 122 % of control; (dose: 25.0 mg/kg/injection, schedule: Q04DX003 (ip), vehicle: saline with Tween-80) 154 % of control; under setting [2], 90 % of control; under setting [8], 213 % of control. Moreover, the T/C under setting [9] is 100 % of control.

Regarding `CCN(CC)CCOC(=O)Cc1cccc2c(=O)cc(-c3cccs3)oc12`, the T/C is 106 % of control under setting [10]; 104 % of control and 117 % of control under setting [11]; 109 % of control under setting [12]; 161 % of control (dose: 200.0 mg/kg/injection, schedule: Q01DX005 (ip), vehicle: Klucel (hydroxypropylcellulose) (HPC)).

`CCO/C(=C\C(=O)c1ccccc1)c1ccccc1`: the T/C is 100 % of control under setting [8]; 100 % of control under setting [9]; 100 % of control (dose: 200.0 mg/kg/injection, schedule: Q04DX003 (ip), vehicle: saline with Tween-80).

As for `CC1=C(C)C(C)(C)OC1=O`, the T/C is, setting by setting: under setting [13], 100 % of control; under setting [14], 100 % of control; under setting [15], 104 % of control.

In the case of `CCCCNC(c1ccc(N(CC)CC)cc1)C(Br)(Br)Br` (stereo not given), the T/C reads like this: (dose: 50.0 mg/kg/injection, schedule: Q01DX005 (ip), vehicle: saline) 114 % of control; (dose: 100.0 mg/kg/injection, schedule: Q01DX005 (ip), vehicle: saline) 101 % of control; (dose: 200.0 mg/kg/injection, schedule: Q01DX005 (ip), vehicle: saline) 107 % of control.

Turning to `c1nc2c(o1)CCCC2`, the T/C is, setting by setting: under setting [16], 104 % of control; under setting [17], 101 % of control; under setting [18], 95 % of control.

Consider `CC(C)(C#N)OC(=O)Nc1c(Cl)cccc1Cl`, for which the T/C by setting is: under setting [16], 100 % of control; under setting [17], 98 % of control; under setting [18], 94 % of control.

Take `Cc1ccc2c(C(=O)O)cc(N)cc2n1`: the T/C is, setting by setting: (dose: 2.0 mg/kg/injection, schedule: Q01DX005 (ip), vehicle: Klucel (hydroxypropylcellulose) (HPC)) 100 % of control; (dose: 4.0 mg/kg/injection, schedule: Q01DX005 (ip), vehicle: Klucel (hydroxypropylcellulose) (HPC)) 104 % of control; (dose: 7.5 mg/kg/injection, schedule: Q01DX005 (ip), vehicle: Klucel (hydroxypropylcellulose) (HPC)) 102 % of control; (dose: 8.0 mg/kg/injection, schedule: Q01DX005 (ip), vehicle: Klucel (hydroxypropylcellulose) (HPC)) 97 % of control.

With `O=C(Nc1ccccc1Cl)OCC(CCl)(CCl)CCl`, the T/C was 100 % of control under setting [5], 106 % of control under setting [6] and 95 % of control under setting [7].

Regarding `COc1ccc(OC)c(N=Cc2cccs2)c1`, the T/C is 90 % of control under setting [3]; 100 % of control under setting [4]; 92 % of control (dose: 200.0 mg/kg/injection, schedule: Q01DX009 (ip), vehicle: saline).

As for `C[n+]1c(-c2cccc(OCCOCCOc3cccc(-c4c5cc(N)ccc5c5ccc(N)cc5[n+]4C)c3)c2)c2cc(N)ccc2c2ccc(N)cc21`, the T/C (dose: 0.19 mg/kg/injection, schedule: Q01DX009 (ip), vehicle: water) was 114 % of control; the T/C (dose: 0.39 mg/kg/injection, schedule: Q01DX009 (ip), vehicle: water) is 114 % of control; the T/C (dose: 1.56 mg/kg/injection, schedule: Q01DX009 (ip), vehicle: water) was 170 % of control; the T/C (dose: 3.13 mg/kg/injection, schedule: Q01DX009 (ip), vehicle: water) was 172 % of control; the T/C (dose: 6.25 mg/kg/injection, schedule: Q01DX009 (ip), vehicle: water) is 102 % of control.

`Oc1ccc(-c2csc(Nc3ccccn3)n2)cc1O`: the T/C runs as follows: (dose: 50.0 mg/kg/injection, schedule: Q01DX005 (ip), vehicle: saline with Tween-80) 98 % of control; (dose: 100.0 mg/kg/injection, schedule: Q01DX005 (ip), vehicle: saline with Tween-80) 106 % of control; (dose: 200.0 mg/kg/injection, schedule: Q01DX005 (ip), vehicle: saline with Tween-80) 104 % of control.

Regarding `C=Cc1c(C)c(OC(C)=O)cc2c1-c1ccc(OC(C)=O)c(C)c1CC2`, the T/C (dose: 2.25 mg/kg/injection, schedule: Q01DX009 (ip), vehicle: Klucel (hydroxypropylcellulose) (HPC)) was 103 % of control; the T/C (dose: 4.5 mg/kg/injection, schedule: Q01DX009 (ip), vehicle: Klucel (hydroxypropylcellulose) (HPC)) was 100 % of control; the T/C (dose: 9.0 mg/kg/injection, schedule: Q01DX009 (ip), vehicle: Klucel (hydroxypropylcellulose) (HPC)) was 94 % of control; the T/C (dose: 18.0 mg/kg/injection, schedule: Q01DX009 (ip), vehicle: Klucel (hydroxypropylcellulose) (HPC)) is 100 % of control.

With `COc1ccc2cc1Oc1ccc(cc1)CC1c3cc(OC)c(cc3CCN1C)Oc1c(OC)c(OC)cc3c1C(C2)N(C)CC3` (stereo not given), the T/C reads like this: (dose: 12.5 mg/kg/injection, schedule: Q01DX005 (ip), vehicle: Klucel (hydroxypropylcellulose) (HPC)) 92 % of control; under setting [10], 95 % of control; under setting [11], 94 % of control; under setting [13], 98 % of control; under setting [12], 86 % of control; under setting [14], 86 % of control. Also, the T/C under setting [15] was 86 % of control.

As for `O=c1c2cc(O)c(O)cc2oc2cc(O)c(C3OC(CO)C(O)C(O)C3O)c(O)c12` (stereo not given), the T/C is 101 % of control (dose: 100.0 mg/kg/injection, schedule: Q01DX001 (ip), vehicle: saline) and 101 % of control (dose: 400.0 mg/kg/injection, schedule: Q01DX001 (ip), vehicle: saline).

Regarding `Cc1c2c[n+](CCCCCCCC[n+]3ccc4c(C)c5c(c(C)c4c3)c3ccccc3n5CCO)ccc2c(C)c2c1c1ccccc1n2CCO`, the T/C (dose: 0.78 mg/kg/injection, schedule: Q04DX003 (ip), vehicle: distilled water + Tween-80) is 154 % of control; the T/C (dose: 1.56 mg/kg/injection, schedule: Q04DX003 (ip), vehicle: distilled water + Tween-80) was 155 % of control and 157 % of control; the T/C (dose: 6.25 mg/kg/injection, schedule: Q04DX003 (ip), vehicle: distilled water + Tween-80) was 155 % of control and 158 % of control; the T/C (dose: 12.5 mg/kg/injection, schedule: Q04DX003 (ip), vehicle: distilled water + Tween-80) is 158 % of control and 184 % of control; the T/C (dose: 25.0 mg/kg/injection, schedule: Q04DX003 (ip), vehicle: distilled water + Tween-80) is 184 % of control; the T/C (dose: 50.0 mg/kg/injection, schedule: Q04DX003 (ip), vehicle: distilled water + Tween-80) is 87 % of control.
